Assay results taken from the supplement of paper PMC10307832.

What was measured:
Assay in all cases: relative viability (nuclei count vs DMSO), 5 days (fraction); higher = more cells survive
[1] = compound: CCn1c(-c2nonc2N)nc2c(C#CC(C)(C)O)ncc(OC[C@H]3CCCNC3)c21 + Nc1ncn([C@H]2C[C@H](O)[C@@H](CO)O2)c(=O)n1 [Decitabine] (partner 2 µM)
Summary of the method: (§1)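 After 5 days of treatment, lung cancer cells in 1536-well plates were fixed and stained in a single step (final 0.05% Triton X-100, 1% formaldehyde, 1 ug/ml Hoechst) and their nuclei counted on 4× images. Treatment had been applied by pin tool the day after seeding as one drug alone or as a fixed anchor-drug dose with five library-drug doses (not always all listed) in √10 steps. Relative viability is the nuclei count of treated wells divided by that of vehicle wells, and values are medians of duplicate plates.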

[2] = compound: CCn1c(-c2nonc2N)nc2c(C#CC(C)(C)O)ncc(OC[C@H]3CCCNC3)c21 + C[C@@H](Oc1cc(-c2cnn(C3CCNCC3)c2)cnc1N)c1c(Cl)ccc(F)c1Cl [Crizotinib] (partner 1 µM)
Summary of the method: as §1

[3] = compound: CCOC1=CC=CC=C1N=NC2=C(NN(C2=O)C3=NC(=CS3)C4=CC=CC=C4)C [BAM7] + NC(=O)Nc1cc(-c2cccc(F)c2)sc1C(=O)N[C@H]1CCCNC1 [AZD7762] (partner 0.2 µM)
Summary of the method: as §1

[4] = compound: CCOC1=CC=CC=C1N=NC2=C(NN(C2=O)C3=NC(=CS3)C4=CC=CC=C4)C [BAM7] + CC(=O)c1c(C)c2cnc(Nc3ccc(N4CCNCC4)cn3)nc2n(C2CCCC2)c1=O [Palbociclib] (partner 0.5 µM)
Summary of the method: as §1

Cell Line | relative viability ([1]; first compound 0.01 µM) | relative viability ([1]; first compound 0.03162 µM) | relative viability ([1]; first compound 0.1 µM) | relative viability ([1]; first compound 0.3162 µM) | relative viability ([1]; first compound 1 µM) | relative viability ([2]; first compound 0.01 µM) | relative viability ([2]; first compound 0.03162 µM) | relative viability ([2]; first compound 0.1 µM) | relative viability ([2]; first compound 0.3162 µM) | relative viability ([2]; first compound 1 µM) | relative viability ([3]; first compound 0.5 µM) | relative viability ([3]; first compound 5 µM) | relative viability ([3]; first compound 15.81 µM) | relative viability ([3]; first compound 50 µM) | relative viability ([4]; first compound 0.5 µM) | relative viability ([4]; first compound 5 µM) | relative viability ([4]; first compound 15.81 µM) | relative viability ([4]; first compound 50 µM)
EPLC-272H | 0.413 | 0.378 | 0.349 | 0.347 | 0.356 | 0.962 | 1.09 | 0.892 | 0.802 | 0.904 | 0.23 | 0.301 | 0.226 | 0.289 | 0.349 | 0.315 | 0.327 | 0.351
NCI-H2126 | 0.505 | 0.608 | 0.583 | 0.54 | 0.548 | 1.01 | 1 | 0.993 | 0.974 | 1.06 | 0.804 | 0.983 | 1.03 | 0.936 | 0.334 | 0.332 | 0.345 | 0.362
LXF-289 | 0.42 | 0.369 | 0.352 | 0.35 | 0.364 | 0.856 | 0.815 | 0.797 | 0.758 | 0.828 | 1.12 | 1.17 | 1.13 | 1.04 | 0.63 | 0.62 | 0.616 | 0.616
NCI-H2405 | 0.782 | 0.75 | 0.721 | 0.692 | 0.647 | 0.888 | 0.911 | 0.704 | 0.798 | 0.848 | 0.832 | 0.862 | 0.811 | 0.758 | 0.507 | 0.577 | 0.546 | 0.553
NCI-H1755 | 0.727 | 0.753 | 0.673 | 0.669 | 0.722 | 0.877 | 0.866 | 0.84 | 0.892 | 0.849 | 0.472 | 0.437 | 0.495 | 0.405 | 0.462 | 0.466 | 0.439 | 0.436
HCC-78 | 0.628 | 0.627 | 0.674 | 0.709 | 0.543 | 0.344 | 0.353 | 0.324 | 0.297 | 0.322 | 0.635 | 1.4 | 0.702 | 0.627 | 0.487 | 0.383 | 0.49 | 0.45
LOU-NH91 | 0.821 | 0.788 | 0.891 | 0.73 | 0.779 | 0.758 | 0.747 | 0.742 | 0.543 | 0.754 | 0.796 | 0.794 | 0.75 | 0.793 | 0.458 | 0.569 | 0.538 | 0.517
NCI-H3122 | 0.499 | 0.364 | 0.427 | 0.436 | 0.414 | 0.276 | 0.312 | 0.264 | 0.283 | 0.276 | 0.946 | 1.13 | 0.918 | 0.846 | 0.174 | 0.225 | 0.186 | 0.198
HCC-827 | 0.348 | 0.319 | 0.331 | 0.308 | 0.308 | 0.884 | 0.917 | 0.879 | 0.865 | 0.882 | 0.199 | 0.201 | 0.284 | 0.182 | 0.532 | 0.467 | 0.493 | 0.481
NCI-H1975 | 0.428 | 0.382 | 0.378 | 0.409 | 0.359 | 0.945 | 1.08 | 0.893 | 1.03 | 0.98 | 0.725 | 0.763 | 0.642 | 0.632 | 0.565 | 0.555 | 0.519 | 0.652
NCI-H1651 | 0.582 | 0.608 | 0.652 | 0.597 | 0.663 | 0.857 | 0.829 | 0.877 | 0.853 | 0.893 | 0.444 | 0.46 | 0.473 | 0.45 | 0.528 | 0.52 | 0.512 | 0.508
NCI-H441 | 0.226 | 0.226 | 0.271 | 0.197 | 0.29 | 0.676 | 0.621 | 0.708 | 0.586 | 0.728 | 1.35 | 1.46 | 0.888 | 1.12 | 0.285 | 0.191 | 0.205 | 0.267
LCLC-103H | 0.726 | 0.797 | 0.737 | 0.716 | 0.781 | 0.964 | 1.07 | 1.05 | 1.11 | 1.02 | 0.825 | 0.88 | 0.725 | 0.781 | 0.507 | 0.493 | 0.484 | 0.529
LCLC-97TM1 | 0.2 | 0.226 | 0.268 | 0.235 | 0.268 | – | 0.435 | 0.331 | 0.333 | 0.367 | 0.222 | 0.172 | 0.29 | 0.252 | 0.272 | 0.185 | – | 0.186
NCI-H727 | 1.03 | 0.976 | 0.943 | 0.825 | 0.714 | 0.841 | 0.94 | 0.785 | 0.667 | 0.763 | 0.586 | 0.675 | 0.678 | 0.41 | 0.579 | 0.689 | 0.714 | 0.731
NCI-H1355 | 0.339 | 0.346 | 0.385 | 0.324 | 0.355 | 1.09 | 0.943 | 1.03 | 1.02 | 0.799 | 0.654 | 0.66 | 0.68 | 0.697 | 0.415 | 0.385 | 0.377 | 0.416
HOP-62 | 0.18 | 0.22 | 0.246 | 0.193 | 0.226 | 0.769 | 0.978 | 0.929 | 0.874 | 0.888 | 0.648 | 0.917 | 0.733 | 0.342 | 0.45 | 0.385 | 0.454 | 0.491
NCI-H2085 | 0.489 | 0.517 | 0.601 | 0.58 | 0.556 | 0.882 | 0.882 | 0.802 | 0.817 | 0.749 | 0.967 | 0.709 | 0.915 | 0.991 | 0.462 | 0.483 | 0.446 | 0.45
